“And” between values parts separate entries of the source, which are not always exact repeats. Equal entries are not always repeated. Where two headings read alike, the source gives them in different places. Bridge positions count the residues as written; N and C are the ends. Square brackets hold non-standard residues; d marks the D form. Peptide text beside a SMILES is read from it. * marks the point of attachment. X1 = C=CCN1CC[C@]23c4c5ccc(O)c4O[C@H]2[C@H](N*)CC[C@@]3(O)[C@H]1C5
Tests used:
mouse KOR, Gαi3 = mouse KOR, Gαi3 (Mus musculus, UniProt P33534); test: TRUPATH BRET G protein assay, Gαi3; type: cell-based; details: read-out: Emax (%) Gαi3
human KOR K227A = target: T1, human KOR K227A (Homo sapiens, UniProt P41145, K227A); type: cell-based; details: HEK-293T
T1 construct: FLAG; expressed in transfected cells; host or cells: HEK293 / HEK293T, transient

human KOR E209A = target: T2, human KOR E209A (Homo sapiens, UniProt P41145, E209A); type: cell-based; details: HEK-293T, KOR E209A
T2 construct: FLAG; expressed in transfected cells; host or cells: HEK293 / HEK293T, transient

human KOR E297A = target: T3, human KOR E297A (Homo sapiens, UniProt P41145, E297A); test: BRET β-arrestin-2 biosensor assay; type: cell-based; details: KOR E297A
T3 construct: FLAG; expressed in transfected cells; host or cells: HEK293T

human KOR I316A [1] = target: T4, human KOR I316A (Homo sapiens, UniProt P41145, I316A); type: cell-based; details: HEK-293T
T4 construct: FLAG; expressed in transfected cells; host or cells: HEK293 / HEK293T, transient

human KOR WT [2] = target: T5, human KOR WT (Homo sapiens, UniProt P41145); test: cAMP inhibition assay normalized to salvinorin A; type: cell-based; details: KOR WT; normalized to salvinorin A
T5 construct: FLAG; expressed in transfected cells; host or cells: HEK293T, transient

human KOR I316A [3] = target: T4, human KOR I316A; test: BRET β-arrestin-2 biosensor assay; type: cell-based
human KOR F293A = target: T6, human KOR F293A (Homo sapiens, UniProt P41145, F293A); test: BRET β-arrestin-2 biosensor assay; type: cell-based
T6 construct: FLAG; expressed in transfected cells; host or cells: HEK293 / HEK293T, transient

human KOR I135A [4] = target: T7, human KOR I135A (Homo sapiens, UniProt P41145, I135A); type: cell-based; details: HEK-293T
T7 construct: FLAG; expressed in transfected cells; host or cells: HEK293 / HEK293T, transient

male SWISS mice [5] = test: Rotarod test (motor coordination/sedation); type: in vivo, mouse; details: DNCP-β-NalA(1) 3.8 and 7.6, U50,488 5.4 µmol kg^−1 s.c.
Protocol: The rotarod test was used to evaluate coordinated locomotion and potential sedation induced by test drugs. […] Male SWISS mice (8–10 weeks old, 30–35 g body weight, n = 21 mice) were habituated to the equipment in two training sessions (30 min apart) one day before testing. On the experimental day, male mice were placed on the rotarod, and treadmill was accelerated from 4 to 40 rotations-per-minute over a period of 5 min. […] Decreased latencies to fall in the rotarod test indicate impaired motor performance. A 300 s cut-off time was used. The rotarod data are expressed as percentage (%) changes from the rotarod latencies obtained before (baseline) and after drug administration (test, T) were calculated as 100*(T/B).

human KOR WT [6] = target: T5, human KOR WT; type: cell-based; details: HEK-293T, KOR WT
human KOR M142A [7] = target: T8, human KOR M142A (Homo sapiens, UniProt P41145, M142A); type: cell-based; details: HEK-293T
T8 construct: FLAG; expressed in transfected cells; host or cells: HEK293 / HEK293T, transient

human KOR L309A = target: T9, human KOR L309A (Homo sapiens, UniProt P41145, L309A); test: BRET β-arrestin-2 biosensor assay; type: cell-based; details: KOR L309A
T9 construct: FLAG; expressed in transfected cells; host or cells: HEK293T

human KOR Y312A [8] = target: T10, human KOR Y312A (Homo sapiens, UniProt P41145, Y312A); type: cell-based
T10 construct: FLAG; expressed in transfected cells; host or cells: HEK293T

human KOR Y320A [9] = target: T11, human KOR Y320A (Homo sapiens, UniProt P41145, Y320A); test: BRET β-arrestin-2 biosensor assay; type: cell-based
T11 construct: FLAG; expressed in transfected cells; host or cells: HEK293 / HEK293T, transient

human KOR Y320A [10] = target: T11, human KOR Y320A; type: cell-based; details: HEK-293T
human KOR M142A [11] = target: T8, human KOR M142A; test: BRET β-arrestin-2 biosensor assay; type: cell-based
human KOR Y312A [12] = target: T10, human KOR Y312A; test: BRET β-arrestin-2 biosensor assay; type: cell-based
human KOR I135A [13] = target: T7, human KOR I135A; test: BRET β-arrestin-2 biosensor assay; type: cell-based
human MOR [14] = target: T12, human MOR (Homo sapiens, UniProt P35372); test: [35S]GTPγS binding assay, CHO membranes; type: biochemical; details: [35S]GTPγS
T12 construct: expressed in transfected cells

mouse KOR = mouse KOR (Mus musculus, UniProt P33534); test: cell-based; parameters: expressed in transfected cells; details: HEK-293T, read-out: Emax cAMP assay
human MOR [15] = target: T12, human MOR; test: Schild regression vs DAMGO in [35S]GTPγS binding assay, CHO membranes; type: biochemical; details: for log (A'/A-1): Schild plot Figure S14d
human KOR WT [16] = target: T5, human KOR WT; test: BRET β-arrestin-2 biosensor assay; type: cell-based; details: KOR WT
male SWISS mice [17] = test: Paw thickness 60 min after formalin injection; type: in vivo, mouse; details: for Paw thickness: individual mice, listed as DNCP-ß-NalA (1)
Protocol: Sixty min after injection of formalin to male mice, maximal paw thickness of the right hind paw (i.e., formalin-injected hind paw) was measured using a digital micrometer (FixPoint, Vienna, Austria). Data are expressed in mm.

mouse KOR, Gαgustducin = mouse KOR, Gαgustducin (Mus musculus, UniProt P33534); test: TRUPATH BRET G protein assay, Gαgustducin; type: cell-based; details: read-out: Emax (%) Gαgustducin
mouse KOR, Gαgustducin, sequence (P33534 whole entry): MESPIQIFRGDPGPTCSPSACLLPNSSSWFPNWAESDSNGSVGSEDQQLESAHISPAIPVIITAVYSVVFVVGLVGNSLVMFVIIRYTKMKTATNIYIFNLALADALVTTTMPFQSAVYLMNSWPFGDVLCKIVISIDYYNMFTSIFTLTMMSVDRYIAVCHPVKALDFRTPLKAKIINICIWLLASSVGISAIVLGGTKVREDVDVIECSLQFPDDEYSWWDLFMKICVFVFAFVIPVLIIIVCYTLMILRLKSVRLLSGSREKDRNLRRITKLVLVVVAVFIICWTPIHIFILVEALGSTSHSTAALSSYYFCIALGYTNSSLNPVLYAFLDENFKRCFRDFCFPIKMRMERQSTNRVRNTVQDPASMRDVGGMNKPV
mouse KOR, Gαgustducin, sequence (A8MTJ3 2-354 partner): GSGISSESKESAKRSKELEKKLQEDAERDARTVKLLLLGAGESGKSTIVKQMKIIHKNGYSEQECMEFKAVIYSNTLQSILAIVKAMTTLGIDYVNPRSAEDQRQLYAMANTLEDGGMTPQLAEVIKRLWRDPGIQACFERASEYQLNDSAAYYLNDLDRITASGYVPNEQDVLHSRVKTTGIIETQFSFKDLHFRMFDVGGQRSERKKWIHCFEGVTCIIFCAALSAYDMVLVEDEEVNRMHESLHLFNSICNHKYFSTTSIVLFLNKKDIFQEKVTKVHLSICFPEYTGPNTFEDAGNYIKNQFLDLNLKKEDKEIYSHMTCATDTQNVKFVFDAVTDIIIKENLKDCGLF

T10 sequence (P41145 whole entry Y312A): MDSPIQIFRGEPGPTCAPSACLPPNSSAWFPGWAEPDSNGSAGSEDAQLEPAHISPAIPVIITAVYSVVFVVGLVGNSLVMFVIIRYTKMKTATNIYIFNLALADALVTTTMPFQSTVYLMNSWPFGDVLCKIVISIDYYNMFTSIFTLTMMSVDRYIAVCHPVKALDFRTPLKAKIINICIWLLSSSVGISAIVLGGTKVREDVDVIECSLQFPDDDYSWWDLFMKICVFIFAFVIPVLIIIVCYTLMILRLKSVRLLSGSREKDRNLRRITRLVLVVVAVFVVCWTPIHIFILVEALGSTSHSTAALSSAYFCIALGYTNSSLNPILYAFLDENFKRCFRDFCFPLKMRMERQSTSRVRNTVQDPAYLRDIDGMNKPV
T7 sequence (P41145 whole entry I135A): as the sequence (P41145 whole entry Y312A) above, with I135A, A312Y counted along it
T5 sequence (P41145 whole entry): as the sequence (P41145 whole entry Y312A) above, with A312Y counted along it
T12 sequence (P35372 whole entry): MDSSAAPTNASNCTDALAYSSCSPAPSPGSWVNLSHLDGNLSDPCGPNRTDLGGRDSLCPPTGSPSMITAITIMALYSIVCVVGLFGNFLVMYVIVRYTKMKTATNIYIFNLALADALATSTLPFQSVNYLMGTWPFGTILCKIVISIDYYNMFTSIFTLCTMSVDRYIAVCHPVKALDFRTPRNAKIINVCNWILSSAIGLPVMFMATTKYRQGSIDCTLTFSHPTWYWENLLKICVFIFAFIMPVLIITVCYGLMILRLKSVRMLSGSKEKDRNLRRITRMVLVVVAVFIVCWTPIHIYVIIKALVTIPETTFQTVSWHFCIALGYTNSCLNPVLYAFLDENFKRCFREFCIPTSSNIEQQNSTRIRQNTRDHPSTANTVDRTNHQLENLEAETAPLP
T8 sequence (P41145 whole entry M142A): as the sequence (P41145 whole entry Y312A) above, with M142A, A312Y counted along it
T11 sequence (P41145 whole entry Y320A): as the sequence (P41145 whole entry Y312A) above, with A312Y, Y320A counted along it
T4 sequence (P41145 whole entry I316A): as the sequence (P41145 whole entry Y312A) above, with A312Y, I316A counted along it
T1 sequence (P41145 whole entry K227A): as the sequence (P41145 whole entry Y312A) above, with K227A, A312Y counted along it
T6 sequence (P41145 whole entry F293A): as the sequence (P41145 whole entry Y312A) above, with F293A, A312Y counted along it
T3 sequence (P41145 whole entry E297A): as the sequence (P41145 whole entry Y312A) above, with E297A, A312Y counted along it
T2 sequence (P41145 whole entry E209A): as the sequence (P41145 whole entry Y312A) above, with E209A, A312Y counted along it
T9 sequence (P41145 whole entry L309A): as the sequence (P41145 whole entry Y312A) above, with L309A, A312Y counted along it
mouse KOR, Gαi3, sequence (P33534 whole entry): as the sequence (P33534 whole entry) above
mouse KOR, Gαi3, sequence (P08754 2-354 partner): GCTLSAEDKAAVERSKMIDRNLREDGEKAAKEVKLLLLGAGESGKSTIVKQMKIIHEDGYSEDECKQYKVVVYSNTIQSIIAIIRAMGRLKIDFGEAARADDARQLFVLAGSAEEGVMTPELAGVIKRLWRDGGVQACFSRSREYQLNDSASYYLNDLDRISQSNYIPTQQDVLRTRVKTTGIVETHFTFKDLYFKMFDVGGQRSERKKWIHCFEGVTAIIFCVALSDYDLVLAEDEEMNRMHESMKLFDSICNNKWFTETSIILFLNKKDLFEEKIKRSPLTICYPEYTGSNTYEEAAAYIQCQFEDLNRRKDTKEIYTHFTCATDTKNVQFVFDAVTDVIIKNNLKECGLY
mouse KOR, sequence (P33534 whole entry): as the sequence (P33534 whole entry) above

C=CCN1CC[C@]23c4c5ccc(O)c4O[C@H]2[C@H](NC(=O)[C@@H](Cc2ccccc2)NC(=O)[C@@H](NC(=O)[C@@H]2CSCC(=O)N[C@@H](Cc4ccc(O)cc4)C(=O)N[C@@H](C)C(=O)N[C@H](Cc4ccc(O)cc4)C(=O)N[C@@H]([C@@H](C)O)C(=O)N[C@@H]([C@@H](C)O)C(=O)N2)[C@@H](C)O)CC[C@@]3(O)[C@H]1C5 [DNCP-β-NalA(1)] ({CH2CO}-YA[dY]TTCT[dF]-X1; thioether N-6)
Emax (mouse KOR, Gαi3): 77 ± 3%
Emax (human KOR K227A): 47.9 ± 1.19%
Emax (human KOR E209A): 99.31 ± 0.52%
Emax (human KOR E297A): 64.6 ± 1.35%
Emax (human KOR I316A [1]): 85.75 ± 0.72%
Emax (human KOR WT [2]): 100.6 ± 0.9%
Emax (human KOR I316A [3]): 22.7 ± 1.59%
Emax (human KOR F293A): 26.5 ± 1.01%
Emax (human KOR I135A [4]): 45.8 ± 1.95%
rotarod performance / motor behavior (male SWISS mice [5]): no changes in the motor behavior
Emax (human KOR WT [6]): 85.9 ± 1.2%
Emax (human KOR M142A [7]): 69.4 ± 1.97%
Emax (human KOR L309A): 62.2 ± 1.08%
Emax (human KOR Y312A [8]; HEK-293T, KOR Y312A): 82.46 ± 0.65%
loss of potency in G protein activation (human KOR Y312A [8]; Y312A vs WT): 4 fold
Emax (human KOR Y320A [9]): 83.5 ± 4.81%
Emax (human KOR Y320A [10]): 86.8 ± 2.05%
Emax (human KOR M142A [11]): 91.7 ± 11.6%
Emax (%) β-arrestin-2 (human KOR Y312A [12]): devoid of arrestin recruitment
BRET-βarr2 recruitment (human KOR Y312A [12]; Log [ligand] (M) -5, replicates): 0.2189 and 0.2059 and 0.2229 and 0.2169
BRET-βarr2 recruitment (human KOR Y312A [12]; Log [ligand] (M) -7, replicates): 0.2499 (2×) and 0.2479 and 0.2279 and 0.2289 and 0.2269
BRET-βarr2 recruitment (human KOR Y312A [12]; Log [ligand] (M) -8, replicates): 0.2479 and 0.2309 and 0.2579 and 0.2119 and 0.2179 and 0.2099
BRET-βarr2 recruitment (human KOR Y312A [12]; Log [ligand] (M) -9, replicates): 0.2369 and 0.2529 and 0.2379 and 0.2309 and 0.2499 and 0.2069
BRET-βarr2 recruitment (human KOR Y312A [12]; Log [ligand] (M) -10, replicates): 0.2429 and 0.2419 and 0.2489 and 0.2119 and 0.2309 and 0.2049
BRET-βarr2 recruitment (human KOR Y312A [12]; Log [ligand] (M) -11, replicates): 0.2319 and 0.2289 and 0.2379 and 0.2249 and 0.2229 and 0.2019
BRET-βarr2 recruitment (human KOR Y312A [12]; Log [ligand] (M) -12, replicates): 0.2219 and 0.2179 and 0.2429 and 0.2239 and 0.2299 and 0.2119
BRET-βarresin2 recruitment (human KOR I135A [13]; Log [ligand] (M) -5, single replicates): 0.1789 and 0.1779 and 0.1349 and 0.1369 (2×)
BRET-βarresin2 recruitment (human KOR I135A [13]; Log [ligand] (M) -6, single replicates): 0.1739 and 0.1699 and 0.1669 and 0.1229 and 0.1319 and 0.1359
BRET-βarresin2 recruitment (human KOR I135A [13]; Log [ligand] (M) -7, single replicates): 0.1699 (2×) and 0.1609 and 0.1309 and 0.1289 and 0.1299
BRET-βarresin2 recruitment (human KOR I135A [13]; Log [ligand] (M) -8, single replicates): 0.1669 and 0.1659 and 0.1729 and 0.1269 and 0.1239 and 0.1349
BRET-βarresin2 recruitment (human KOR I135A [13]; Log [ligand] (M) -9, single replicates): 0.1669 (2×) and 0.1649 and 0.1249 and 0.1239 and 0.1259
BRET-βarresin2 recruitment (human KOR I135A [13]; Log [ligand] (M) -10, single replicates): 0.1689 and 0.1639 (2×) and 0.1279 and 0.1309 and 0.1339
BRET-βarresin2 recruitment (human KOR I135A [13]; Log [ligand] (M) -11, single replicates): 0.1699 and 0.1669 and 0.1689 and 0.1249 and 0.1279 (2×)
BRET-βarresin2 recruitment (human KOR I135A [13]; Log [ligand] (M) -12, single replicates): 0.1519 and 0.1569 (2×) and 0.1249 (2×) and 0.1259
EC50 (M) MOR (human MOR [14]): no stimulation up to 10 µM
Emax (mouse KOR): 92 ± 1%
log (A'/A-1) (human MOR [15]; log B -7): 1.45
log (A'/A-1) (human MOR [15]; log B -7.5): 0.36
log (A'/A-1) (human MOR [15]; log B -8): -0.07
average functional affinity (human MOR [15]; from pA2): 13 nM
Schild linear regression slope (human MOR [15]; vs DAMGO): 1.5
Emax (human KOR WT [16]): 35.3 ± 1.13%
Paw thickness (male SWISS mice [17]; 0.8 µmol/kg): 3.47 mm and 4.51 mm and 3.9 mm and 4.44 mm and 3.64 mm and 4.36 mm
reduction of paw thickness vs saline (male SWISS mice [17]; 1.9 µmol kg^−1 s.c.): 12 ± 2%
Paw thickness (male SWISS mice [17]; 1.9 µmol/kg): 4.04 mm and 4.14 mm and 3.53 mm and 3.7 mm and 3.82 mm
reduction of paw thickness vs saline (male SWISS mice [17]; 3.8 µmol kg^−1 s.c.): 17 ± 3%
antagonism of anti-inflammatory effect by nor-BNI (male SWISS mice [17]; nor-BNI 13.6 µmol kg^−1 s.c. pretreatment): significantly reversed by pre-treatment with nor-BNI
Emax (mouse KOR, Gαgustducin): 101 ± 5%
